Among the test systems are UACC-257 melanoma; CAKI-1 renal; SK-MEL-2 melanoma; HT29 colon; NCI-H522 lung; LOX IMVI melanoma; A498 renal; SF-539 CNS; 786-0 renal; NCI-H460 lung.
Holding throughout (assay): NCI-60 cell line screen, 48 h

SMILES strings stand for the structures.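 Compound exposure: 48 hours, 5 concentrations, 96-well plates. GI50: concentration for 50% inhibition of growth. TGI marks complete inhibition of growth.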

Regarding `Cc1ccc2c(c1)C(C)Cc1c(ncnc1-n1cnc3cc(C)ccc31)N2C` (stereo not given), the GI50 in the experiment on UACC-257 melanoma is 5.34 µM; in the experiment on CAKI-1 renal, 0.0407 µM; with SK-MEL-2 melanoma, 0.0419 µM; in the experiment with HT29 colon, 0.0302 µM; with NCI-H522 lung, 0.026 µM; in the experiment with LOX IMVI melanoma it was 0.0361 µM. Moreover, the GI50 is 0.0297 µM in the experiment on A498 renal, 0.0218 µM in the experiment with SF-539 CNS, 0.0371 µM with 786-0 renal and 0.034 µM in the experiment on NCI-H460 lung. For the same compound, the TGI in the experiment with UACC-257 melanoma was 21.4 µM; with CAKI-1 renal, 12.4 µM; in the experiment with SK-MEL-2 melanoma, 15.8 µM; in the experiment on HT29 colon it was 0.195 µM; with NCI-H522 lung, 0.0784 µM; in the experiment with LOX IMVI melanoma, 12.2 µM. Moreover, the TGI with A498 renal is 2 µM; in the experiment with SF-539 CNS, 0.0593 µM; in the experiment with 786-0 renal it was 12.5 µM; in the experiment on NCI-H460 lung, 4.39 µM.
Regarding `NCCCCCCCCn1c2c(c3ccccc3c1=O)C(=O)c1ccccc1-2`, the GI50 in the experiment with UACC-257 melanoma is 4.97 µM; in the experiment with CAKI-1 renal, 3.25 µM; in the experiment with SK-MEL-2 melanoma, 2.83 µM; with HT29 colon it was 1.86 µM; in the experiment with NCI-H522 lung it was 2.46 µM; in the experiment with LOX IMVI melanoma, 3.64 µM. Further, the GI50 in the experiment on A498 renal is 3.48 µM; in the experiment on SF-539 CNS, 2.84 µM; in the experiment with 786-0 renal it was 21 µM; in the experiment with NCI-H460 lung, 3.66 µM. Further, the TGI was 20.6 µM with UACC-257 melanoma; 9.03 µM in the experiment on CAKI-1 renal; 6.98 µM with SK-MEL-2 melanoma; 4.02 µM in the experiment with HT29 colon; 6.37 µM in the experiment on NCI-H522 lung; > 100 µM in the experiment with LOX IMVI melanoma. The TGI was 15.8 µM in the experiment with A498 renal, 8.62 µM in the experiment on SF-539 CNS, 56.4 µM in the experiment on 786-0 renal and 24.8 µM with NCI-H460 lung.
For the compound `C[C@@H](N)C1CCC(C(=O)Nc2ccncc2)CC1` (stereo not given in full), the GI50 was > 100 µM in the experiment on UACC-257 melanoma; > 40.4 µM in the experiment on CAKI-1 renal; > 100 µM in the experiment with SK-MEL-2 melanoma; > 100 µM in the experiment with HT29 colon; > 100 µM in the experiment with NCI-H522 lung; > 100 µM with LOX IMVI melanoma. Moreover, the GI50 in the experiment on A498 renal, in the experiment on SF-539 CNS, in the experiment with 786-0 renal and in the experiment with NCI-H460 lung was > 100 µM in each case. Further, the TGI in the experiment on UACC-257 melanoma, in the experiment on CAKI-1 renal, with SK-MEL-2 melanoma, with HT29 colon, with NCI-H522 lung and in the experiment with LOX IMVI melanoma was > 100 µM in each case. Further, the TGI with A498 renal, with SF-539 CNS, in the experiment with 786-0 renal and with NCI-H460 lung was > 100 µM throughout.
Turning to `NC(=NCCCC1(c2ccccc2)CCCC1)Nc1ccc(Cl)cc1`, the GI50 in the experiment on UACC-257 melanoma was 1.82 µM; in the experiment on CAKI-1 renal it was 1.93 µM; in the experiment with SK-MEL-2 melanoma, 1.95 µM; in the experiment with HT29 colon it was 1.72 µM; in the experiment with NCI-H522 lung it was 1.68 µM; with LOX IMVI melanoma, 1.58 µM. Besides, the GI50 in the experiment with A498 renal is 1.75 µM; with SF-539 CNS, 1.75 µM; in the experiment on 786-0 renal, 1.68 µM; in the experiment with NCI-H460 lung, 1.69 µM. The TGI with UACC-257 melanoma was determined as 3.56 µM; with CAKI-1 renal, 3.94 µM; with SK-MEL-2 melanoma, 3.52 µM; with HT29 colon, 3.17 µM; in the experiment with NCI-H522 lung, 3.32 µM; in the experiment on LOX IMVI melanoma it was 2.93 µM. Moreover, the TGI in the experiment with A498 renal is 3.29 µM; with SF-539 CNS, 3.23 µM; in the experiment on 786-0 renal it was 3.13 µM; in the experiment with NCI-H460 lung, 3.42 µM.
Take `N=C(N)/N=C(\N)c1c(-c2cc(O)ccc2O)nc2sccn12`: the GI50 is 25.1 µM in the experiment with UACC-257 melanoma; 20.1 µM in the experiment with CAKI-1 renal; 44.9 µM with SK-MEL-2 melanoma; 36.5 µM in the experiment on HT29 colon; 32.4 µM in the experiment on NCI-H522 lung; 22.8 µM in the experiment on LOX IMVI melanoma. For the same compound, the GI50 was > 100 µM with A498 renal, 20.4 µM with SF-539 CNS, 19.9 µM in the experiment on 786-0 renal and > 100 µM in the experiment on NCI-H460 lung. In addition, the TGI is 62.7 µM in the experiment with UACC-257 melanoma; 39.3 µM in the experiment on CAKI-1 renal; > 100 µM in the experiment with SK-MEL-2 melanoma; > 100 µM in the experiment with HT29 colon; > 100 µM in the experiment on NCI-H522 lung; 44.5 µM in the experiment with LOX IMVI melanoma. Further, the TGI in the experiment with A498 renal is > 100 µM; in the experiment on SF-539 CNS it was 38.4 µM; with 786-0 renal, 38.9 µM; in the experiment on NCI-H460 lung it was > 100 µM.
Turning to `CCOC(=O)C(Cc1c[nH]c2ccc([N+](=O)[O-])cc12)(NC(C)=O)C(=O)OCC`, the GI50 in the experiment with UACC-257 melanoma was > 1000 µM; with CAKI-1 renal, 34.2 µM; with SK-MEL-2 melanoma, > 1000 µM; in the experiment with HT29 colon it was > 1000 µM; in the experiment on NCI-H522 lung, 79.5 µM; with LOX IMVI melanoma, > 419 µM. Moreover, the GI50 in the experiment with A498 renal was 8.18 µM; with SF-539 CNS, 134 µM; with 786-0 renal, 143 µM; with NCI-H460 lung, > 306 µM. Further, the TGI in the experiment on UACC-257 melanoma is > 1000 µM; in the experiment with CAKI-1 renal, > 1000 µM; in the experiment with SK-MEL-2 melanoma, > 1000 µM; in the experiment on HT29 colon, > 1000 µM; with NCI-H522 lung, 460 µM; in the experiment with LOX IMVI melanoma it was > 1000 µM. The TGI is > 390 µM with A498 renal, > 473 µM with SF-539 CNS, > 802 µM in the experiment on 786-0 renal and > 1000 µM with NCI-H460 lung.
Regarding `COc1cc(OC)c2ssc3c(OC)cc(OC)c4ssc1c2-c43`, the TGI with UACC-257 melanoma, in the experiment with CAKI-1 renal, in the experiment with SK-MEL-2 melanoma, in the experiment on HT29 colon, with NCI-H522 lung and in the experiment with LOX IMVI melanoma was > 100 µM throughout. The TGI with A498 renal, in the experiment with SF-539 CNS, in the experiment on 786-0 renal and in the experiment with NCI-H460 lung was > 100 µM each time.
For the compound `COc1c2ccoc2cc2oc(=O)ccc12`, the TGI with UACC-257 melanoma, in the experiment with CAKI-1 renal, with SK-MEL-2 melanoma, with HT29 colon, with NCI-H522 lung and with LOX IMVI melanoma was > 100 µM each time. Also, the TGI with A498 renal, with SF-539 CNS, with 786-0 renal and in the experiment with NCI-H460 lung was > 100 µM in each case.

The values are drawn from PubChem BioAssay (NCI).
